Measured values taken from ChEMBL document CHEMBL1268974, “Synthesis and antitumour activity of glycyrrhetinic acid derivatives” (Bioorg Med Chem, 2010).

What was measured:
Assay type in all cases: functional, cell-based
8505C = assay: Cytotoxicity against human 8505C cells after 96 hrs by SRB assay; settings: Homo sapiens, 8505C, 96 h
[1] = Cytotoxicity against human A253 cells after 96 hrs by SRB assay; settings: Homo sapiens, A253, 96 h
A2780 = assay: Cytotoxicity against human A2780 cells after 96 hrs by SRB assay; settings: Homo sapiens, A2780, 96 h
A549 = assay: Cytotoxicity against human A549 cells after 96 hrs by SRB assay; settings: Homo sapiens, A549, 96 h
DLD-1 = assay: Cytotoxicity against human DLD1 cells after 96 hrs by SRB assay; settings: Homo sapiens, DLD-1, 96 h
[2] = Cytotoxicity against human Lipo cells after 96 hrs by SRB assay; settings: Homo sapiens, Lipo, 96 h
[3] = Cytotoxicity against human 518A2 cells after 96 hrs by SRB assay; settings: 518A2, 96 h
A-431 = assay: Cytotoxicity against human A431 cells after 96 hrs by SRB assay; settings: A-431, 96 h
FaDu = assay: Cytotoxicity against human FADU cells after 96 hrs by SRB assay
HCT-116 = assay: Cytotoxicity against human HCT116 cells after 96 hrs by SRB assay; settings: HCT-116, 96 h
HCT-8 = assay: Cytotoxicity against human HCT8 cells after 96 hrs by SRB assay; settings: HCT-8, 96 h
HT-29 = assay: Cytotoxicity against human HT-29 cells after 96 hrs by SRB assay; settings: HT-29, 96 h
MCF7 = assay: Cytotoxicity against human MCF7 cells after 96 hrs by SRB assay; settings: Homo sapiens, MCF7, 96 h
SW-1736 = assay: Cytotoxicity against human SW1736 cells after 96 hrs by SRB assay; settings: Homo sapiens, SW-1736, 96 h
SW480 = assay: Cytotoxicity against human SW480 cells after 96 hrs by SRB assay; settings: SW480, 96 h

Compound `CC1(C)[C@@H](OC(=O)CN)CC[C@]2(C)[C@H]3C(=O)C=C4[C@@H]5C[C@@](C)(C(=O)OCc6ccccc6)CC[C@]5(C)CC[C@@]4(C)[C@]3(C)CC[C@@H]12` has an IC50 (8505C) of 4.79 µM, an IC50 [1] of 5.03 µM and an IC50 (A2780) of 3.54 µM. For the same compound, the IC50 (A549) was 5.07 µM, the IC50 (DLD-1) was 4.54 µM and the IC50 [2] was 4.81 µM.
With `C[C@H](N)C(=O)O[C@H]1CC[C@]2(C)[C@H]3C(=O)C=C4[C@@H]5C[C@@](C)(C(=O)OCc6ccccc6)CC[C@]5(C)CC[C@@]4(C)[C@]3(C)CC[C@H]2C1(C)C` the IC50 (8505C) was 3.1 µM, the IC50 [1] was 3.49 µM and the IC50 (A2780) was 2.85 µM. The IC50 (A549) was 3.51 µM, the IC50 (DLD-1) was 5.02 µM and the IC50 [2] was 3.57 µM.
In the case of `COC(=O)[C@@]1(C)CC[C@]2(C)CC[C@]3(C)C(=CC(=O)[C@@H]4[C@@]5(C)CC[C@H](OC(=O)[C@H](C)N)C(C)(C)[C@@H]5CC[C@]43C)[C@@H]2C1`, the IC50 [3] is reported as 3.54 µM, the IC50 (8505C) is reported as 4.31 µM and the IC50 [1] is reported as 3.61 µM. For the same compound, the IC50 (A2780) was 2.98 µM, the IC50 (A-431) was 3.48 µM and the IC50 (A549) was 2.77 µM. It also gave an IC50 (DLD-1) of 4.49 µM, an IC50 (FaDu) of 4.52 µM and an IC50 (HCT-116) of 2.74 µM. The IC50 (HCT-8) was 2.8 µM, the IC50 (HT-29) was 2.87 µM and the IC50 [2] was 4.3 µM. It also gave an IC50 (MCF7) of 3.54 µM, an IC50 (SW-1736) of 3.22 µM and an IC50 (SW480) of 3.52 µM.
In the case of `C[C@H](N)C(=O)O[C@H]1CC[C@]2(C)[C@H]3C(=O)C=C4[C@@H]5C[C@@](C)(C(=O)O)CC[C@]5(C)CC[C@@]4(C)[C@]3(C)CC[C@H]2C1(C)C`, the IC50 (8505C) is reported as > 30 µM, the IC50 [1] is reported as > 30 µM and the IC50 (A2780) is reported as > 30 µM. The IC50 (A549) was > 30 µM, the IC50 (DLD-1) was > 30 µM and the IC50 [2] was > 30 µM.
For `CCOC(=O)[C@@]1(C)CC[C@]2(C)CC[C@]3(C)C(=CC(=O)[C@@H]4[C@@]5(C)CC[C@H](OC(=O)CN)C(C)(C)[C@@H]5CC[C@]43C)[C@@H]2C1`, the IC50 (8505C) was 5.32 µM, the IC50 [1] was 3.59 µM and the IC50 (A2780) was 3.9 µM. For the same compound, the IC50 (A549) was 5.39 µM, the IC50 (DLD-1) was 5.61 µM and the IC50 [2] was 4.32 µM.
In the case of `CCOC(=O)[C@@]1(C)CC[C@]2(C)CC[C@]3(C)C(=CC(=O)[C@@H]4[C@@]5(C)CC[C@H](OC(=O)[C@H](C)N)C(C)(C)[C@@H]5CC[C@]43C)[C@@H]2C1`, the IC50 [3] is reported as 2.72 µM, the IC50 (8505C) is reported as 3.87 µM and the IC50 [1] is reported as 2.33 µM. It also gave an IC50 (A2780) of 2.59 µM, an IC50 (A-431) of 2.27 µM and an IC50 (A549) of 3.43 µM. It also gave an IC50 (DLD-1) of 3.72 µM, an IC50 (FaDu) of 4.25 µM and an IC50 (HCT-116) of 2.82 µM. The IC50 (HCT-8) was 2.21 µM, the IC50 (HT-29) was 2.5 µM and the IC50 [2] was 2.74 µM. The IC50 (MCF7) was 3.55 µM, the IC50 (SW-1736) was 2.92 µM and the IC50 (SW480) was 2.79 µM.
`CCOC(=O)[C@@]1(C)CC[C@]2(C)CC[C@]3(C)C(=CC(=O)[C@@H]4[C@@]5(C)CC[C@H](OC(=O)[C@@H](C)N)C(C)(C)[C@@H]5CC[C@]43C)[C@@H]2C1` gave an IC50 [3] of 2.76 µM, an IC50 (8505C) of 4.43 µM and an IC50 [1] of 2.55 µM. For the same compound, the IC50 (A2780) was 3.26 µM, the IC50 (A-431) was 2.76 µM and the IC50 (A549) was 4.35 µM. For the same compound, the IC50 (DLD-1) was 4.49 µM, the IC50 (FaDu) was 3.9 µM and the IC50 (HCT-116) was 4.25 µM. For the same compound, the IC50 (HCT-8) was 2.42 µM, the IC50 (HT-29) was 4.38 µM and the IC50 [2] was 4.13 µM. It also gave an IC50 (MCF7) of 3.55 µM, an IC50 (SW-1736) of 4.11 µM and an IC50 (SW480) of 3.32 µM.
Compound `CCOC(=O)[C@@]1(C)CC[C@]2(C)CC[C@]3(C)C(=CC(=O)[C@@H]4[C@@]5(C)CC[C@H](OC(=O)CCN)C(C)(C)[C@@H]5CC[C@]43C)[C@@H]2C1` has an IC50 (8505C) of 2.32 µM, an IC50 [1] of 2.23 µM and an IC50 (A2780) of 1.77 µM. The IC50 (A549) was 2.18 µM, the IC50 (DLD-1) was 2.74 µM and the IC50 [2] was 2.38 µM.
For `COC(=O)[C@@]1(C)CC[C@]2(C)CC[C@]3(C)C(=CC(=O)[C@@H]4[C@@]5(C)CC[C@H](OC(=O)CCN)C(C)(C)[C@@H]5CC[C@]43C)[C@@H]2C1`, the IC50 (8505C) was 2.55 µM, the IC50 [1] was 2.5 µM and the IC50 (A2780) was 1.72 µM. For the same compound, the IC50 (A549) was 2.4 µM, the IC50 (DLD-1) was 2.51 µM and the IC50 [2] was 2.52 µM. It also gave an IC50 (MCF7) of 2.5 µM and an IC50 (SW-1736) of 1.82 µM.
`CC(C)OC(=O)[C@@]1(C)CC[C@]2(C)CC[C@]3(C)C(=CC(=O)[C@@H]4[C@@]5(C)CC[C@H](OC(=O)[C@H](C)N)C(C)(C)[C@@H]5CC[C@]43C)[C@@H]2C1` gave an IC50 [3] of 5.09 µM, an IC50 (8505C) of 3.49 µM and an IC50 [1] of 3.51 µM. For the same compound, the IC50 (A2780) was 2.08 µM, the IC50 (A-431) was 3.49 µM and the IC50 (A549) was 3.43 µM. For the same compound, the IC50 (DLD-1) was 5.54 µM, the IC50 (FaDu) was 5.39 µM and the IC50 (HCT-116) was 5.03 µM. For the same compound, the IC50 (HCT-8) was 5.13 µM, the IC50 (HT-29) was 4.6 µM and the IC50 [2] was 3.53 µM. The IC50 (MCF7) was 3.52 µM, the IC50 (SW-1736) was 3.54 µM and the IC50 (SW480) was 3.5 µM.
With `CC1(C)[C@@H](OC(=O)CN)CC[C@]2(C)[C@H]3C(=O)C=C4[C@@H]5C[C@@](C)(C(=O)O)CC[C@]5(C)CC[C@@]4(C)[C@]3(C)CC[C@@H]12` the IC50 (8505C) was > 30 µM, the IC50 [1] was > 30 µM and the IC50 (A2780) was > 30 µM. For the same compound, the IC50 (A549) was > 30 µM, the IC50 (DLD-1) was > 30 µM and the IC50 [2] was > 30 µM.
